How the values were obtained:
healthy volunteers = experiment: inhalation in healthy volunteers, external respiratory function; type: in vivo, human
Procedure: (§1) The present invention solves the task of creating of bronchial dilating drug on the basis of 1′,3′-dinitroglycerol ester of 11(S),15(S)-dihydroxy-9-keto-5Z,13E-prostadienoic acid (nitroproston). This drug is any form of nitroproston suitable for introduction into the respiratory tract by inhalation, for example in the form of isotonic solution. […] Therapeutic index measured in rodents is greater than 15000.
(§2) The tests were carried out on healthy volunteers (average age 42.6±3.9 years) and patients with bronchial asthma in unstable remission state (average age 48.3±5.1 years). Nitroproston was introduced via inhalation in the form of a solution in the physiological solution in doses of 5 and 7.5 μg per inhalation. To a person skilled in the art will not meet a difficulty to prepare the solution for inhalation, knowing the dose of the active substance and the volume of the solution, which will be determined by technical features used in the specific context of the inhaler. […] External respiratory function was determined with the help of automatic spiroanalyzer (VI 8911, Estonia). […] So, change the maximum 25% volume exhalation velocity ranged from 10.4 to 32.2% as compared to the original values. Changes in peak volumetric velocity of exhalation in patients who have received 7.5 micrograms nitroproston per inhalation, are presented at the FIG. 1.

[1] = system: patients with bronchial asthma in unstable remission state; experiment: broncholytic activity by inhalation in patients with bronchial asthma; type: in vivo, human
Text: as §1
On the x-axis is the time after the introduction of the nitroproston, min; on the y-axis is the peak exhale velocity (l/min). The names of patients are abbreviated.
as §2

individuals = settings: in vivo; cited from earlier work
guinea pig trachea = settings: isolated guinea pig trachea; read-out: EC50, relaxation of the guinea pig trachea; cited from earlier work
white outbred male mice [2] = experiment: acute toxicity and therapeutic index in mice; type: in vivo; settings: alcohol solution
Procedure: Experiments conducted on white outbred male mice (22±2 g weight). Nitroproston in the form of alcohol solution was injected intraperitoneal to the 10 mice in a maximum of 50 μl per dose of 215 mg/kg. The control group (10 animals) was injected with the same volume of pure ethyl alcohol. Animal health monitoring period was 14 days. Therapeutic index defined as the ratio of LD50 values (toxic dose) to the ED20 for change in blood pressure (pharmacological dose).

white outbred male mice [3] = experiment: toxicity in repeated introduction in mice; type: in vivo; settings: 50 and 500 μg/kg daily for 14 days
Procedure: Experiments conducted on white outbred male mice (22±2 g weight). Animals were divided into three groups of 10 animals each. Nitroproston (1% of alcoholic solution) was diluted with water and was injected in the volume 20 μl in two doses: 50 and 500 μg/kg. The control group was injected with equal volume of distilled water. The injections worked every day for 14 days. The animals were observed daily, measuring their weight, the intake of food and water. There have been observed no differences in the state and behavior of the animals between the control and experimental groups.

| Structure (SMILES) | changes in the functions of the external respiration (healthy volunteers) | bronchospasm test result ([1]; patients with bronchial asthma) | side effect in individuals (individuals) | EC50 (guinea pig trachea) [nM] | cough bouts (healthy volunteers) | animal deaths (white outbred male mice [2]; 215 mg/kg intraperitoneal, 14 days observation) | acute toxicity assessment (white outbred male mice [2]; intraperitoneal, mice) | toxic effects on repeated introduction (white outbred male mice [3]) | parameters of external breath ([1]; 5 μg per inhalation) | side effects ([1]; 5 μg per inhalation) | external respiration indices ([1]; 7.5 μg per inhalation) | toxicity at therapeutic doses ([1]; 5-20 μg per inhalation) | peak volumetric velocity of exhalation ([1]; 7.5 micrograms per inhalation, within 360 minutes (FIG. 1)) | only side effect of the inhalation solution ([1]; inhalation solution) | bronchial dilation and side effects ([1]; isotonic solution, 7.5 micrograms per inhalation) | cough bouts ([1]; patients with asthma, inhalation) |
| --- | --- | --- | --- | --- | --- | --- | --- | --- | --- | --- | --- | --- | --- | --- | --- | --- |
| CC(Cc1ccc(O)cc1)NCC(O)c1cc(O)cc(O)c1 (stereo not drawn) [Berotec, reference compound] | did not cause significant changes | positive result | – | – | – | – | – | – | – | – | – | – | – | – | – | – |
| CCCCC[C@H](O)/C=C/[C@H]1[C@H](O)CC(=O)[C@@H]1C/C=C\CCCC(=O)O [natural prostaglandin E2, prostaglandin E2, reference compound] | – | – | strong cough reflex | 140 ± 80 | – | – | – | – | – | – | – | – | – | – | – | – |
| CCCCC[C@H](O)/C=C/[C@H]1[C@@H](O)CC(=O)[C@@H]1C/C=C\CCCC(=O)OC(CO[N+](=O)[O-])CO[N+](=O)[O-] [nitroproston, 1′,3′-dinitroglycerol ester of 11(S),15(S)-dihydroxy-9-keto-5Z,13E-prostadienoic acid] | did not cause significant changes | – | – | 7 | no cough bouts | animal deaths have not observed | low-toxic compound | no toxic effects | improved slightly | have not noticed any side effects | have been improved | non-toxic | strongest increase | transient dry mouth | prolonged dilation of bronchus without side effects | no cough bouts |

Source: US9408820B2, “Broncholytic drug on the basis of prostaglandin” (OBSCHESTVO S OGRANICHENNOY OTVETSTVENNOST'YU “PROSTANIT …, priority 2012, dated 2016)
